Experimental findings from patent publication US6897304B2, “Cephem compounds and ESBL-detecting reagents containing the same” (Zenyaku Kogyo Kabushiki Kaisha, priority 2000, dated 2005) are described below.

What all share (conditions): 50 μl of 1 U/ml enzyme, 10 minutes
One experiment has as its target T1, CEPase (CEPase Type IV) (Enterobacter cloacae, UniProt P05364).
T1 construct: purchased Sigma chemical Co. CEPase Type IV; host or cells: isolated from E. cloacae
The experiment can be described thus: Paper disk colour-change test, reactivity against β-lactamases (CEPase). It is filed as biochemical, E. cloacae. Details: key: −: negative; +: positive; ++: highly positive. The procedure:
(§1) Each of the test compounds is dissolved in dimethyl sulfoxide. Paper disks with a diameter of 8 mm containing the test compounds in an amount of 5 or 25 μg per disk were prepared and dried in air. Each of these disks was added dropwise with a solution of β-lactamases (50 μl) prepared to a concentration of 1 U/ml with distilled water and allowed for 10 minutes.
(§2) PCase is an enzyme isolated from B. cereus (production of Sigma Chemical Co. :PCase Type I); and CEPase, from E. cloacae (production of Sigma chemical Co. :CEPase Type IV).

Another experiment deals with ESBL. The experiment can be described thus: Paper disk colour-change test, reactivity against β-lactamases (ESBL). It is filed as biochemical. Also noted: key to Reactivity against β-lactamases: ESBL: −: negative; +: positive; ++: highly positive. The method, then: as §1
The test system of a further experiment is PCase (PCase Type I). The experiment can be described thus: Paper disk colour-change test, reactivity against β-lactamases (PCase). In kind it is biochemical, B. cereus. Also noted: key: −: negative; +: positive; ++: highly positive. The method, then:
as §1, §2

T1 sequence (P05364 21-381): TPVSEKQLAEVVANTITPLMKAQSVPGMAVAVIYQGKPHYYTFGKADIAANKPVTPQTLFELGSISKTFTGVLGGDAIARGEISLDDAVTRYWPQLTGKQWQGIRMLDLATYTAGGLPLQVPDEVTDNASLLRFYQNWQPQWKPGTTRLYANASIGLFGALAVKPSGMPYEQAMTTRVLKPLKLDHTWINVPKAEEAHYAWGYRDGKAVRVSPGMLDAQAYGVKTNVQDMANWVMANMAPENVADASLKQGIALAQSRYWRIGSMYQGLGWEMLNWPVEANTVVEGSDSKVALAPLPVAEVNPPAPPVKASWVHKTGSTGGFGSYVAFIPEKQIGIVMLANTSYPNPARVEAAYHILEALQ

As for `CC(C)(ON=C(C(=O)NC1C(=O)N2C(C(=O)O)=C(C=Cc3ccc([N+](=O)[O-])cc3)CS[C@H]12)c1csc(N)n1)C(=O)O` (stereo partly shown) [compound 2, 7-[2-(2-aminothiazol-4-yl)-2-(1-carboxy-1-methylethoxyimino)acetamido]-3-(4-nitrostyryl)-3-cephem-4-carboxylic acid], at CEPase (CEPase Type IV) (content 5 μg/disk), the “Reactivity against β-lactamases: CEPase” value is given as “−”. For the same compound, in the experiment on ESBL (content 5 μg/disk), the “Reactivity against β-lactamases: ESBL” value is “+” and the color change entry is “pale yellow → orange”. For the same compound, the “Reactivity against β-lactamases: PCase” value in the experiment on PCase (PCase Type I) (content 5 μg/disk) was “−”.
`CC(C)(ON=C(C(=O)NC1C(=O)N2C(C(=O)O)=C(C=Cc3ccc([N+](=O)[O-])cc3[N+](=O)[O-])CS[C@H]12)c1csc(N)n1)C(=O)O` (stereo partly shown) [compound 1, 7-[2-(2-aminothiazol-4-yl)-2-(1-carboxy-1-methylethoxyimino)acetamido]-3-(2,4-dinitrostyryl)-3-cephem-4-carboxylic acid]: the “Reactivity against β-lactamases: CEPase” value on CEPase (CEPase Type IV) (content 5 μg/disk) is “−”. Besides, in the experiment with ESBL (content 5 μg/disk), the “Reactivity against β-lactamases: ESBL” value was “++” and the color change result was “pale yellow → red”. The “Reactivity against β-lactamases: PCase” value in the experiment with PCase (PCase Type I) (content 5 μg/disk) is listed as “−”.
Take `CON=C(C(=O)NC1C(=O)N2C(C(=O)O)=C(C=Cc3ccc([N+](=O)[O-])cc3)CS[C@H]12)c1csc(N)n1` (stereo partly shown) [compound 4, 7-[2-(2-aminothiazol-4-yl)-2-methoxyiminoacetamido]-3-(4-nitrostyryl)-3-cephem-4-carboxylic acid]: the “Reactivity against β-lactamases: CEPase” value at CEPase (CEPase Type IV) (content 5 μg/disk) was “−”. In the experiment with ESBL (content 5 μg/disk), the “Reactivity against β-lactamases: ESBL” value is recorded as “++” and the color change entry is recorded as “pale yellow → orange”. In addition, the “Reactivity against β-lactamases: PCase” value with PCase (PCase Type I) (content 5 μg/disk) was “−”.
As to `Nc1nc(C(=NOCC(=O)O)C(=O)NC2C(=O)N3C(C(=O)O)=C(C=Cc4ccc([N+](=O)[O-])cc4)CS[C@H]23)cs1` (stereo partly shown) [compound 6, 7-[2-(2-aminothiazol-4-yl)-2-carboxymethoxyiminoacetamido]-3-(4-nitrostyryl)-3-cephem-4-carboxylic acid], the “Reactivity against β-lactamases: CEPase” value at CEPase (CEPase Type IV) (content 5 μg/disk) is given as “−”. Also, in the experiment with ESBL (content 5 μg/disk), the “Reactivity against β-lactamases: ESBL” value is listed as “++” and the color change entry is on record as “pale yellow → orange”. Also, the “Reactivity against β-lactamases: PCase” value in the experiment on PCase (PCase Type I) (content 5 μg/disk) was “−”.
Turning to `Nc1nc(C(=NOCC(=O)O)C(=O)NC2C(=O)N3C(C(=O)O)=C(C=Cc4ccc([N+](=O)[O-])cc4[N+](=O)[O-])CS[C@H]23)cs1` (stereo partly shown) [compound 5, 7-[2-(2-aminothiazol-4-yl)-2-carboxymethoxyiminoacetamido]-3-(2,4-dinitrostyryl)-3-cephem-4-carboxylic acid], the “Reactivity against β-lactamases: CEPase” value at CEPase (CEPase Type IV) (content 5 μg/disk) was “−”. Moreover, in the experiment on ESBL (content 5 μg/disk), the “Reactivity against β-lactamases: ESBL” value is on record as “++” and the color change result is “pale yellow → red”. For the same compound, in the experiment on PCase (PCase Type I) (content 5 μg/disk), the “Reactivity against β-lactamases: PCase” value is “−”.
`O=C(Cc1cccs1)NC1C(=O)N2C(C(=O)O)=C(C=Cc3ccc([N+](=O)[O-])cc3[N+](=O)[O-])CS[C@H]12` (stereo partly shown) [compound A, 3-(2,4-dinitrostyryl)-7-(2-thienylacetamido)-3-cephem-4-carboxylic acid, reference compound]: the “Reactivity against β-lactamases: CEPase” value on CEPase (CEPase Type IV) (content 5 μg/disk) is “++”. Further, in the experiment on ESBL (content 5 μg/disk), the “Reactivity against β-lactamases: ESBL” value is recorded as “++” and the color change result is listed as “pale yellow → red”. Also, the “Reactivity against β-lactamases: PCase” value in the experiment with PCase (PCase Type I) (content 5 μg/disk) is on record as “++”.
With `CC(C)(ON=C(C(=O)NC1C(=O)N2C(C(=O)O)=C(C=Cc3ccc(C#N)cc3)CS[C@H]12)c1csc(N)n1)C(=O)O` (stereo partly shown) [compound 3, 7-[2-(2-aminothiazol-4-yl)-2-(1-carboxy-1-methylethoxyimino)acetamido]-3-(4-cyanostyryl)-3-cephem-4-carboxylic acid], the “Reactivity against β-lactamases: CEPase” value on CEPase (CEPase Type IV) (content 25 μg/disk) is given as “−”. For the same compound, in the experiment with ESBL (content 25 μg/disk), the “Reactivity against β-lactamases: ESBL” value is “+” and the color change entry is “pale yellow → golden”. In the experiment on PCase (PCase Type I) (content 25 μg/disk), the “Reactivity against β-lactamases: PCase” value is “−”.
